Assay results: US8722897B2, “Metal complexes of thiourea and derivatives as metal delivering anti-cancer and anti-inflammatory agents” (priority 2010, dated 2014)

Experiments:
[1] = molecular target: T1, TrxR1 (Rattus norvegicus, UniProt O89049); experiment: biochemical; conditions: for Ki: progress curve analysis
T1 sequence (O89049 1-499): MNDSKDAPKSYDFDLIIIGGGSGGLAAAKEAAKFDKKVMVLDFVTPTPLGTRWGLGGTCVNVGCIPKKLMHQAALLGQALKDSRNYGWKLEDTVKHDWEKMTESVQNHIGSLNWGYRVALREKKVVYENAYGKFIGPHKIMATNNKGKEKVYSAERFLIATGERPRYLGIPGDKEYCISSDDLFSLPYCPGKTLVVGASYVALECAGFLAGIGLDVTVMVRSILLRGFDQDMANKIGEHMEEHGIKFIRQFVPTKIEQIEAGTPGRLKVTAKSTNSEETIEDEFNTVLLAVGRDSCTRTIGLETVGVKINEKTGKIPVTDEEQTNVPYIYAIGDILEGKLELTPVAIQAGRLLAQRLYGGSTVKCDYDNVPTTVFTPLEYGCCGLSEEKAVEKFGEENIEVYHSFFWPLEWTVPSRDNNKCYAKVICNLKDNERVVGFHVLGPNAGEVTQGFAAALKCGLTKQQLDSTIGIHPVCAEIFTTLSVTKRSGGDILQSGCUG
Experimental: This was further studied by progress curve analysis (FIG. 8). ^24, 25 1 was added in excess (3-100 nM) to a reaction mixture containing 0.2 mM NADPH, 1 nM TrxR and 3 mM disulfide substrate 5,5′-dithiobis(2-nitrobenzoic acid) (DTNB) in phosphate buffer (pH 7.4). […] This was analyzed using Eq. 1 (Example 6), where P is the product concentration, vi and vf are the initial and final steady-state velocities, respectively, and kapp is the apparent first-order rate constant for establishment of the final steady-state inhibition. A plot of the kapp against the inhibitor concentrations followed a hyperbolic function (FIG. 8B). This is indicative of a two-step, tight-binding inhibition mechanism:
[formula] where EI is the initial collision complex, k3 is the forward isomerization rate, and k4 is the reverse isomerization rate. In this scheme, binding involves rapid formation of an initial collision complex (EI) that subsequently undergoes isomerization to the final slow dissociating enzyme-inhibitor complex (EI*). The k3, k4 and the dissociation constant of the initial collision complex EI (Ki′) can be obtained by fitting the data to Eq. 2.
1 was added in excess (3-100 nM) to a reaction mixture containing 0.2 mM NADPH, 1 nM TrxR1, 3 mM disulfide substrate 5,5′-dithiobis(2-nitrobenzoic acid) (DTNB), 100 mM phosphate buffer, pH 7.4 and 1 mM EDTA. The progress curves are non-linear, showing two-phase equilibria typical of slow-onset tight-binding inhibition. The data was fit into Eq. 1 using GraphPad Prism 3.0 software, P=vft+((vi−vf/kapp)(1−e^−kappt) (1) where P is the product concentration, vi and vf are the initial and final steady-state velocities, respectively, and kapp is the apparent first-order rate constant for establishment of the final steady-state inhibition. A plot of the kapp against the inhibitor concentrations followed a hyperbolic function (FIG. 8B). This is indicative of a two-step, tight-binding inhibition mechanism:
[formula] where EI is the initial collision complex, k3 is the forward isomerization rate, and k4 is the reverse isomerization rate. […]

[2] = Cytotoxicity assay (MTT), SUNE1; conditions: human, SUNE1 cells
Experimental: Cells were seeded in a 96-well flat-bottomed microplate at 20,000 cells/well in 150 μL of growth medium solution. The compounds were dissolved in dimethyl sulfoxide. Serial dilution of each complex was added to each well with final concentration of DMSO≦1%. The microplate was incubated at 37° C., 5% CO2, 95% air in a humidified incubator for 72 h. After incubation, 10 μL MTT reagent (5 mg/mL) was added to each well. The microplate was re-incubated at 37° C. in 5% CO2 for 4 h. Solubilization solution (10% SDS in 0.01 M HCl) (100 μL) was added to each well. The microplate was left in an incubator for 24 h. Absorbances at 550 nm were measured by a microplate reader.

[3] = molecular target: T2, Glutathione reductase (GR) (Homo sapiens, UniProt P00390); experiment: Cellular glutathione reductase activity of treated HeLa cells; format: cell-based; conditions: one-hour treatment
T2 construct: endogenous in cells; host or cells: HeLa
T2 sequence (P00390 44-522): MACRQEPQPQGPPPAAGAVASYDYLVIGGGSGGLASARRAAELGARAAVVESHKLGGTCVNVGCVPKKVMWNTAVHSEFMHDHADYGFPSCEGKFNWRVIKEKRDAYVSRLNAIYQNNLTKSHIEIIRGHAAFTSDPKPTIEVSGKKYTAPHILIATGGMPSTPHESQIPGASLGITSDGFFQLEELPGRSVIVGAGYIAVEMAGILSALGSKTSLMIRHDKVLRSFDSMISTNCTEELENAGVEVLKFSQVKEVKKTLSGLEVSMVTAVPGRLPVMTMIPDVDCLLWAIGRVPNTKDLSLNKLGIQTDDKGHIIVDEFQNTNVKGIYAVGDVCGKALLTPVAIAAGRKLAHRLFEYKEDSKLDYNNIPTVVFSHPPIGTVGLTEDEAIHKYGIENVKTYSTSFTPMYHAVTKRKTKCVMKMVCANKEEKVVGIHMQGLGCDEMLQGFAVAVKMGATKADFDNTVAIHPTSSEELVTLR
Experimental: Cells were seeded at 2×10^5/well in 6-well plates and incubated for 24 hours. The metal thiourea compounds (10^−9 to 10^−4 M) were serially diluted and added to the cells (final DMSO concentrations≦1%). After an one-hour incubation, cells were washed thrice with phosphate buffered saline and 100 μL ice-cold lysis buffer (50 mM phosphate buffer, pH 7.4, 1 mM EDTA, 0.1% Triton-X 100) were added to the cell layer. Cell lysis was carried on ice for 5 minutes and the cell lysates were collected and stored at −80° C. or assayed immediately.
Cell lysates (10 μg proteins) were added to a mixture containing 100 mM phosphate, pH 7.4, 1 mM EDTA, 1 mM GSSG and 0.2 mM NADPH. Reaction was initiated by adding DTNB (3 mM final) and the increases in O.D.412 nm were measured for 10 min. GR activities were determined by subtracting the increases in O.D.412 nm in the absence of GSSG.

[4] = molecular target: T1, TrxR1; experiment: In vitro TrxR enzyme assay, with or without NADPH pre-reduction; format: biochemical
Experimental: A plot of the kapp against the inhibitor concentrations followed a hyperbolic function (FIG. 8B). This is indicative of a two-step, tight-binding inhibition mechanism: […] DTNB (3 mM) and NADPH (0.2 mM) was then added. The TrxR1 activities were determined as the increases in O.D.412 nm over 10 min.

COc1ccc(N2CCN(c3ccc(OC)cc3)C2=[S+][Au-][S+]=C2N(c3ccc(OC)cc3)CCN2c2ccc(OC)cc2)cc1 [complex 1, [Au(TU)2]Cl]
recovery of enzyme activities after removal of the free inhibitors by ultrafiltration [1]: could not be recovered | Ki ([1]; dissociation constant of the initial collision complex EI (Ki′)): 1.39 nM | Ki ([1]; overall inhibitory constant Ki*, Eq. 3): 0.018 nM | IC50 at 72 h [2]: 10800 ± 200 nM | effect on cellular GR activity [3]: not affected | concentration for half maximal inhibition of TrxR ([4]; TrxR 1 nM): approximately equal molar concentration | inhibition of NADPH reduced TrxR compared with oxidized TrxR ([4]; with or without 0.2 mM NADPH pre-reduction): much more efficiently inhibited
